The values below come from US8362000B2, “Azetidinyl diamides as monoacylglycerol lipase inhibitors” (Janssen Pharmaceutica NV, priority 2009, dated 2013).

Bounds are passed on as bounds.

The first test deals with T1, mutant MGL (Homo sapiens, UniProt Q99685, L169S/L176S).
T1 sequence (Q99685 1-303 L169S/L176S): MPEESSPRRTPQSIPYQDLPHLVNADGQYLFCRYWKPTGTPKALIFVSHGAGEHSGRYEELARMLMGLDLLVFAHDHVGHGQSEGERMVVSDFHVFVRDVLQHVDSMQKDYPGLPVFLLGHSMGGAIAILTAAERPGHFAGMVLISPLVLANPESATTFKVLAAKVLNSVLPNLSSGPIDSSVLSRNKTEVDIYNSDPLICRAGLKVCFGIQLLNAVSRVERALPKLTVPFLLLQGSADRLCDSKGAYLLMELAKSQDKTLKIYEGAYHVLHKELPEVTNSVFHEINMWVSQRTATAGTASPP
The experiment in a line: MGL ThermoFluor assay - mutant. In kind it is binding. As to conditions: ThermoFluor concentration-response, read-out: MGL mutant ThermoFluor Kd. (In general: Differential scanning fluorimetry follows unfolding on heating by fluorescence.)
For `O=C(c1cscn1)N1CCN(C2CN(C(=O)C3CCC(c4ccc(Cl)cc4)CC3)C2)CC1` (centres unmarked) [Cpd 643], the Kd was determined as 1 µM.

Turning to `O=C(c1ccccc1)N1CCN(C2CN(C(=O)c3ccccc3NCc3ccccc3)C2)CC1` [Cpd 52, N-Benzyl-2-({3-[4-(phenylcarbonyl)piperazin-1-yl]azetidin-1-yl}carbonyl)aniline], the Kd was determined as 3.33 µM.

As for `Cc1nc(COc2ccc(Cl)cc2)sc1C(=O)N1CC(N2CCN(C(=O)c3ccccc3)CC2)C1` [Cpd 558, 1-[1-({2-[(4-Chlorophenoxy)methyl]-4-methyl-1,3-thiazol-5-yl}carbonyl)azetidin-3-yl]-4-(phenylcarbonyl)piperazine], the Kd turned out to be 0.333 µM.

As for `O=C(c1ccccc1)N1CCN(C2CN(C(=O)c3ccccc3C3CCNC3)C2)CC1` (centres unmarked) [Cpd 456, 1-(Phenylcarbonyl)-4-{1-[(2-pyrrolidin-3-ylphenyl)carbonyl]azetidin-3-yl}piperazine], the Kd was more than 76.7 µM.

For the compound `O=C(c1ccc(Oc2ccccn2)cc1)N1CC(N2CCN(C(=O)c3cscn3)CC2)C1` [Cpd 922], the Kd was 3.89 µM.

For the compound `CC(C)n1c(C(F)(F)F)nc2cc(C(=O)N3CC(N4CCN(C(=O)c5ccccc5)CC4)C3)ccc21` [Cpd 38, 1-(1-Methylethyl)-5-({3-[4-(phenylcarbonyl)piperazin-1-yl]azetidin-1-yl}carbonyl)-2-(trifluoromethyl)-1H-benzimidazole], the Kd was 0.182 µM.

Consider `O=C(c1ccc(Cc2ccccc2)cc1)N1CC(N2CCN(C(=O)c3nccs3)C(c3ccccc3)C2)C1` (centres unmarked) [Cpd 1464, 4-{1-[(4-Benzylphenyl)carbonyl]azetidin-3-yl}-2-phenyl-1-(1,3-thiazol-2-ylcarbonyl)piperazine], for which the Kd is more than 31.2 µM.

As for `COc1cc(C(=O)N2CC(N3CCN(C(=O)c4ccccc4)CC3)C2)ccc1Br` [Cpd 24, 1-{1-[(4-Bromo-3-methoxyphenyl)carbonyl]azetidin-3-yl}-4-(phenylcarbonyl)piperazine], the Kd is 5 µM.

Turning to `O=C(c1ccccc1)N1CCN(C2CN(C(=O)c3cncc(-c4ccccc4)c3)C2)CC1` [Cpd 80, 1-(Phenylcarbonyl)-4-{1-[(5-phenylpyridin-3-yl)carbonyl]azetidin-3-yl}piperazine], the Kd was 49.5 µM.

In the case of `O=C(c1ccc(-c2ccccc2)cc1)N1CCN(C2CN(C(=O)c3cscn3)C2)C(c2ccccc2)C1` (centres unmarked) [Cpd 1402, 4-(Biphenyl-4-ylcarbonyl)-2-phenyl-1-[1-(1,3-thiazol-4-ylcarbonyl)azetidin-3-yl]piperazine], the Kd came to 2 µM.

On to `O=C(c1ccccc1)N1CCN(C2CN(C(=O)c3cccnc3Oc3ccc(Cl)cc3)C2)CC1` [Cpd 474, 1-(1-{[2-(4-Chlorophenoxy)pyridin-3-yl]carbonyl}azetidin-3-yl)-4-(phenylcarbonyl)piperazine], for which the Kd was found to be 5 µM.

In the case of `O=C(c1cscn1)N1CCN(C2CN(C(=O)c3cc(Br)ccc3F)C2)CC1` [Cpd 925], the Kd is more than 62.5 µM.

As for `O=C(c1ccccc1)C1CCC(C(=O)N2CC(N3CCN(C(=O)c4cscn4)CC3)C2)CC1` (centres unmarked) [Cpd 478], the Kd stood at 2 µM.

In the case of `O=C(c1ccccc1)N1CCN(C2CN(C(=O)c3ccc(SCc4ccc(Cl)cc4)cc3)C2)CC1` [Cpd 418], the Kd stood at 0.5 µM.

As for `O=C(c1ccccc1)N1CCN(C2CN(C(=O)c3ccc(Oc4ccccn4)c(F)c3)C2)CC1` [Cpd 537], the Kd turned out to be 3.33 µM.

For `O=C(c1ccc(SCc2cccc(Cl)c2Cl)cc1)N1CC(N2CCN(C(=O)c3nccs3)CC2)C1` [Cpd 413, 1-[1-({4-[(2,3-Dichlorobenzyl)sulfanyl]phenyl}carbonyl)azetidin-3-yl]-4-(1,3-thiazol-2-ylcarbonyl)piperazine], the Kd is 0.002 µM.

As to `Cc1nc(COc2ccc(Cl)cc2)sc1C(=O)N1CC(N2CCN(C(=O)c3cscn3)CC2)C1` [Cpd 966], the Kd was found to be 0.334 µM.

As for `O=C(c1cc(F)cc(Br)c1)N1CC(N2CCN(C(=O)c3cscn3)CC2)C1` [Cpd 926], the Kd came out at 9.44 µM.

As for `O=C(c1ccc(CSc2cccc(Cl)c2)cc1)N1CC(N2CCN(C(=O)c3nccs3)CC2)C1` [Cpd 454], the Kd was 0.0147 µM.

For the compound `O=C(c1ccc(Oc2cccc(Cl)c2)cc1)N1CC(N2CCN(C(=O)c3nccs3)CC2)C1` [Cpd 421, 1-(1-{[4-(3-Chlorophenoxy)phenyl]carbonyl}azetidin-3-yl)-4-(1,3-thiazol-2-ylcarbonyl)piperazine], the Kd was determined as 0.004 µM.

Turning to `Cc1ccc(C(=O)N2CCN(C3CN(C(=O)c4ccc(-c5ccccc5)cc4)C3)CC2)s1` [Cpd 14, 1-[1-(Biphenyl-4-ylcarbonyl)azetidin-3-yl]-4-[(5-methylthiophen-2-yl)carbonyl]piperazine], the Kd came out at 0.25 µM.

Regarding `O=C(c1ccc(-c2ccccc2)cc1)N1CCN(C2CN(C(=O)c3ncccn3)C2)CC1` [Cpd 1400, 2-({3-[4-(Biphenyl-4-ylcarbonyl)piperazin-1-yl]azetidin-1-yl}carbonyl)pyrimidine], the Kd is 4.07 µM.

As for `Cc1nc(-c2cccc(C(F)(F)F)c2)sc1C(=O)N1CC(N2CCN(C(=O)c3ccccc3)CC2)C1` [Cpd 618, 1-[1-({4-Methyl-2-[3-(trifluoromethyl)phenyl]-1,3-thiazol-5-yl}carbonyl)azetidin-3-yl]-4-(phenylcarbonyl)piperazine], the Kd worked out at 0.08 µM.

For the compound `O=C(c1cscn1)N1CCN(C2CN(C(=O)c3ccc(Br)cc3Cl)C2)CC1` [Cpd 25, 1-{1-[(4-Bromo-2-chlorophenyl)carbonyl]azetidin-3-yl}-4-(1,3-thiazol-4-ylcarbonyl)piperazine], the Kd is 10 µM.

For `O=C(c1ccccc1)N1CCN(C2CN(C(=O)c3ccc4[nH]c5c(c4c3)CCCC5)C2)CC1` [Cpd 55, 6-({3-[4-(Phenylcarbonyl)piperazin-1-yl]azetidin-1-yl}carbonyl)-2,3,4,9-tetrahydro-1H-carbazole], the Kd worked out at 25 µM.

Regarding `O=C(c1ccccc1)N1CCN(C2CN(C(=O)c3ccc(NCc4ccccc4Cl)cc3)C2)CC1` [Cpd 492, N-(2-Chlorobenzyl)-4-({3-[4-(phenylcarbonyl)piperazin-1-yl]azetidin-1-yl}carbonyl)aniline], the Kd was 0.167 µM.

For the compound `CC(=O)Oc1ccc(C(=O)N2CC(N3CCN(C(=O)c4nccs4)CC3)C2)cc1` [Cpd 471, 4-({3-[4-(1,3-Thiazol-2-ylcarbonyl)piperazin-1-yl]azetidin-1-yl}carbonyl)phenyl acetate], the Kd turned out to be 2.5 µM.

Consider `O=C(c1ccc(Oc2ccc(Cl)cc2)cc1)N1CC(N2CCN(C(=O)c3nccs3)CC2)C1` [Cpd 420, 1-(1-{[4-(4-Chlorophenoxy)phenyl]carbonyl}azetidin-3-yl)-4-(1,3-thiazol-2-ylcarbonyl)piperazine], for which the Kd is 0.005 µM.

Staying with this test, now noted: ThermoFluor thermal stability binding assay, read-out: MGL mutant ThermoFluor Kd.
With `O=C(c1ccccc1)N1CCN(C2CN(C(=O)c3ccc(OCc4ccc(S(=O)(=O)N5CCOCC5)cc4)cc3)C2)CC1` [Cpd 394], the Kd is 0.846 µM.

On to `O=C(c1ccc(-c2ccccc2)cc1)N1CC(N2CCN(C(=O)c3cnon3)CC2)C1` [Cpd 308], for which the Kd is 10 µM.

Take `O=C(c1ccc2c(c1)CCCN2c1cccc(C(F)(F)F)c1)N1CC(N2CCN(C(=O)c3nccs3)CC2)C1` [Cpd 374, 6-({3-[4-(1,3-Thiazol-2-ylcarbonyl)piperazin-1-yl]azetidin-1-yl}carbonyl)-1-[3-(trifluoromethyl)phenyl]-1,2,3,4-tetrahydroquinoline]: the Kd was determined as 0.0022 µM.

For the compound `O=C(c1ccccc1)N1CCN(C2CN(C(=O)c3ccc(OCc4cncc(Cl)c4)cc3)C2)CC1` [Cpd 554], the Kd amounted to 1.99 µM.

Regarding `O=C(c1cscn1)N1CCN(C2CN(C(=O)c3csc(-c4cc(Cl)cc(Cl)c4)n3)C2)CC1` [Cpd 1395], the Kd amounted to 1.81 µM.

For the compound `O=C(c1cscn1)N1CCN(C2CN(C(=O)c3nc(-c4ccccc4)oc3C(F)(F)F)C2)CC1` [Cpd 1403], the Kd turned out to be 1.69 µM.

In the case of `O=C(c1ccccc1)N1CCN(C2CN(C(=O)c3ccc4oc(-c5ccccc5)nc4c3)C2)CC1` [Cpd 132], the Kd came out at 0.25 µM.

As for `Cc1cc(C(=O)N2CC(N3CCN(C(=O)c4cscn4)CC3)C2)ccc1-c1cccc(C(F)(F)F)c1` [Cpd 242, 1-(1-{[2-Methyl-3′-(trifluoromethyl)biphenyl-4-yl]carbonyl}azetidin-3-yl)-4-(1,3-thiazol-4-ylcarbonyl)piperazine], the Kd worked out at 0.004 µM.

Take `O=C(c1nccs1)N1CCN(C2CN(C(=O)c3cccc4nc(Cc5ccc(Cl)cc5)[nH]c34)C2)CC1` [Cpd 991]: the Kd stood at 0.2 µM.

Take `N#CC=Cc1cccc(-c2ccc(C(=O)N3CC(N4CCN(C(=O)c5nccs5)CC4)C3)cc2)c1` [Cpd 223, 3-[4′-({3-[4-(1,3-Thiazol-2-ylcarbonyl)piperazin-1-yl]azetidin-1-yl}carbonyl)biphenyl-3-yl]prop-2-enenitrile]: the Kd amounted to 0.0067 µM.

Regarding `O=C(c1cscn1)N1CCN(C2CN(C(=O)c3cccc4nc(-c5ccc(Cl)cc5)oc34)C2)CC1` [Cpd 1380, 2-(4-Chlorophenyl)-7-({3-[4-(1,3-thiazol-4-ylcarbonyl)piperazin-1-yl]azetidin-1-yl}carbonyl)-1,3-benzoxazole], the Kd was found to be 0.246 µM.

Staying with this test, now noted: ThermoFluor, compound concentration measured by qNMR, read-out: MGL mutant ThermoFluor qKd (using qNMR conc.).
With `Cc1ccnc(-n2ccc3cc(C(=O)N4CC(N5CCN(C(=O)C(F)(F)F)CC5)C4)ccc32)c1` [Cpd 1199, 1-(4-Methylpyridin-2-yl)-5-({3-[4-(trifluoroacetyl)piperazin-1-yl]azetidin-1-yl}carbonyl)-1H-indole], the Kd came out at 0.264 µM.

Staying with this test, now noted: ThermoFluor, compound concentration measured by qNMR, read-out: MGL mutant ThermoFluor qKd (μM) (using qNMR conc.).
Take `Cc1cc(-n2ccc3cc(C(=O)N4CC(N5CCN(C(=O)c6cscn6)CC5)C4)ccc32)ccc1C#N` [Cpd 1421, 2-Methyl-4-[5-({3-[4-(1,3-thiazol-4-ylcarbonyl)piperazin-1-yl]azetidin-1-yl}carbonyl)-1H-indol-1-yl]benzonitrile]: the Kd was 0.044 µM.
